The series is described as follows: Mouse PK studies after oral and IV dosing. It is filed as in vivo. The note with it: for F: PO 3 mg/kg vs IV 1 mg/kg; for AUC(0-t) / clearance / half-life / Vd / Cmax / Tmax: in vivo; for clearance: read-out: IV Cl (converted); for Vd: read-out: IV VSS. Here is the method: The pharmacokinetics of representative Compounds of the Disclosure were determined after oral and IV dosing at the concentrations indicated in mouse (Table 7). […] The vehicles used in these studies are either (i) 10% PEG400+90% PBS (adjusted to pH to 8.0 by 0.5 N NaOH); or (ii) 100% PEG200.

Setting [1] is: iv, 1 mg/kg, IV, dose 1 mg/kg, read-out: IV AUC(0 − t).
Setting [2] is: iv, 1 mg/kg, IV, dose 1 mg/kg, read-out: IV T1/2 (converted).
Setting [3] is: po, 3 mg/kg, PO, dose 3 mg/kg, read-out: PO AUC(0 − t).
Where [4] appears, read: po, 3 mg/kg, PO, dose 3 mg/kg, read-out: PO T1/2 (converted).

Like-named read-outs stand apart in the source and are kept apart here.

The molecule `C[C@H]1CC2(CCN(c3ccc(C(=O)N4CCN(C5CCN(c6ccc7c(c6)C(=O)N(C6CCC(=O)NC6=O)C7=O)CC5)CC4)cc3)CC2)CN1c1ccc(C#N)c(Cl)c1` (stereo partly drawn) [Cpd. No. 302] registered an F of 27%. Further, the AUC(0-t) (commonly exposure summed from dosing to a finite time, without extrapolation to infinity) under setting [1] was 5030 ng·h/mL. Further, under “iv, 1 mg/kg, IV, dose 1 mg/kg”, the clearance was 3.17 mL/min/kg and the Vd is 1.45 L/kg. The half-life under setting [2] was 7 h. Where the note is “po, 3 mg/kg”, the Cmax (usually the peak of the concentration-time curve) stood at 526 ng/mL and the Tmax (as a rule, the time at which the peak concentration occurs) was found to be 1.3 h. Further, under setting [3], the AUC(0-t) came to 4050 ng·h/mL. For the same molecule, under setting [4], the half-life was 7.3 h.

With `C[C@H]1CC2(CCN(c3ccc(C(=O)N4CCN(C5CN(c6cc7c(cc6F)C(=O)N(C6CCC(=O)NC6=O)C7=O)C5)CC4)cc3)CC2)CN1c1ccc(C#N)c(Cl)c1` (stereo partly drawn) [Cpd. No. 344, 2-chloro-4-((3S)-8-(4-(4-(1-(2-(2,6-dioxopiperidin-3-yl)-6-fluoro-1,3-dioxoisoindolin-5-yl)azetidin-3-yl)piperazine-1-carbonyl)phenyl)-3-methyl-2,8-diazaspiro[4.5]decan-2-yl)benzonitrile], the F amounted to 64%. Further, under setting [1], the AUC(0-t) was found to be 4930 ng·h/mL. Under “iv, 1 mg/kg, IV, dose 1 mg/kg”, the clearance was 3.17 mL/min/kg and the Vd was found to be 1.58 L/kg. The half-life under setting [2] is 6.9 h. Moreover, for the setting “po, 3 mg/kg”, the peak level (Cmax) was 841 ng/mL and the Tmax stood at 4 h. The AUC(0-t) under setting [3] stood at 9470 ng·h/mL. Besides, the half-life under setting [4] is 6 h.

Turning to `C[C@H]1CC2(CCN(c3ccc(C(=O)N4CCN(C5CN(c6ccc7c(c6)CN(C6CCC(=O)NC6=O)C7=O)C5)CC4)cc3)CC2)CN1c1ccc(C#N)c(Cl)c1` (stereo partly drawn) [Cpd. No. 346, 2-chloro-4-((3S)-8-(4-(4-(1-(2-(2,6-dioxopiperidin-3-yl)-1-oxoisoindolin-5-yl)azetidin-3-yl)piperazine-1-carbonyl)phenyl)-3-methyl-2,8-diazaspiro[4.5]decan-2-yl)benzonitrile], the F stood at 32%. Besides, the AUC(0-t) under setting [1] stood at 3030 ng·h/mL. Also, for the setting “iv, 1 mg/kg, IV, dose 1 mg/kg”, the clearance was 5 mL/min/kg and the Vd was 2.7 L/kg. The half-life under setting [2] is 8.8 h. Moreover, under “po, 3 mg/kg”, the Cmax worked out at 260 ng/mL and the Tmax came to 3.3 h. For the same molecule, under setting [3], the AUC(0-t) was 2950 ng·h/mL. In addition, the half-life under setting [4] was 7.2 h.

Take `C[C@H]1CC2(CCN(c3ccc(C(=O)N4CCN(C5CN(c6ccc7c(c6)C(=O)N(C6CCC(=O)NC6=O)C7)C5)CC4)cc3)CC2)CN1c1ccc(C#N)c(Cl)c1` (stereo partly drawn) [Cpd. No. 348, 2-chloro-4-((3S)-8-(4-(4-(1-(2-(2,6-dioxopiperidin-3-yl)-3-oxoisoindolin-5-yl)azetidin-3-yl)piperazine-1-carbonyl)phenyl)-3-methyl-2,8-diazaspiro[4.5]decan-2-yl)benzonitrile]: the F was 12%. In addition, under setting [1], the AUC(0-t) came to 10100 ng·h/mL. In addition, under “iv, 1 mg/kg, IV, dose 1 mg/kg”, the clearance is 1.67 mL/min/kg and the Vd came to 0.9 L/kg. The half-life under setting [2] is 7.5 h. For the same molecule, where the note is “po, 3 mg/kg”, the Cmax worked out at 334 ng/mL and the Tmax turned out to be 2 h. For the same molecule, the exposure AUC(0-t) under setting [3] amounted to 3740 ng·h/mL. The half-life under setting [4] was 7.6 h.

For the molecule `C[C@H]1CC2(CCN(c3ccc(C(=O)N4CCC(CN5CCN(c6ccc7c(c6)C(=O)N(C6CCC(=O)NC6=O)C7=O)CC5)CC4)cc3)CC2)CN1c1ccc(C#N)c(Cl)c1` (stereo partly drawn) [Cpd. No. 442, 2-chloro-4-((3S)-8-(4-(4-((4-(2-(2,6-dioxopiperidin-3-yl)-1,3-dioxoisoindolin-5-yl)piperazin-1-yl)methyl)piperidine-1-carbonyl)phenyl)-3-methyl-2,8-diazaspiro[4.5]decan-2-yl)benzonitrile], the F was 42%. The AUC(0-t) under setting [1] was determined as 5240 ng·h/mL. In addition, for the setting “iv, 1 mg/kg, IV, dose 1 mg/kg”, the clearance was 2.83 mL/min/kg and the Vd stood at 1.7 L/kg. Also, the half-life under setting [2] was 9.2 h. Also, under “po, 3 mg/kg”, the highest level (Cmax) was 847 ng/mL and the Tmax came out at 2.67 h. Also, the AUC(0-t) under setting [3] is 6570 ng·h/mL. Further, the half-life under setting [4] was 5.37 h.

Molecule `C[C@H]1CC2(CCN(c3ccc(C(=O)N4CCC(N5CCN(c6ccc7c(c6)C(=O)N(C6CCC(=O)NC6=O)C7=O)CC5)CC4)cc3)CC2)CN1c1ccc(C#N)c(Cl)c1` (stereo partly drawn) [Cpd. No. 443, 2-chloro-4-((3S)-8-(4-(4-(4-(2-(2,6-dioxopiperidin-3-yl)-1,3-dioxoisoindolin-5-yl)piperazin-1-yl)piperidine-1-carbonyl)phenyl)-3-methyl-2,8-diazaspiro[4.5]decan-2-yl)benzonitrile] came in with an F of 67%. Further, the AUC(0-t) under setting [1] is 8440 ng·h/mL. Also, where the note is “iv, 1 mg/kg, IV, dose 1 mg/kg”, the clearance is 2 mL/min/kg and the Vd worked out at 1.02 L/kg. For the same molecule, the half-life under setting [2] was 7.1 h. Where the note is “po, 3 mg/kg”, the maximum concentration (Cmax) was 1870 ng/mL and the Tmax was found to be 2 h. Further, the AUC(0-t) under setting [3] is 15500 ng·h/mL. In addition, the half-life under setting [4] is 5.38 h.

`C[C@H]1CC2(CCN(c3ccc(C(=O)N4CCC(CN5CCN(c6cc7c(cc6F)C(=O)N(C6CCC(=O)NC6=O)C7=O)CC5)CC4)cc3)CC2)CN1c1ccc(C#N)c(Cl)c1` (stereo partly drawn) [Cpd. No. 444, 2-chloro-4-((3S)-8-(4-(4-((4-(2-(2,6-dioxopiperidin-3-yl)-6-fluoro-1,3-dioxoisoindolin-5-yl)piperazin-1-yl)methyl)piperidine-1-carbonyl)phenyl)-3-methyl-2,8-diazaspiro[4.5]decan-2-yl)benzonitrile] gave an F of 68%. Under setting [1], the AUC(0-t) came out at 7800 ng·h/mL. Moreover, for the setting “iv, 1 mg/kg, IV, dose 1 mg/kg”, the clearance is 1.83 mL/min/kg and the Vd was determined as 1.2 L/kg. In addition, the half-life under setting [2] was 8.3 h. Besides, for the setting “po, 3 mg/kg”, the Cmax turned out to be 1250 ng/mL and the Tmax was found to be 4 h. Moreover, the AUC(0-t) under setting [3] is 16000 ng·h/mL. Moreover, the half-life under setting [4] is 6.9 h.

Consider `C[C@H]1CC2(CCN(c3cnc(C(=O)N4CCC(CN5Cc6cc7c(cc6C5)C(=O)N(C5CCC(=O)NC5=O)C7=O)CC4)cn3)CC2)CN1c1ccc(C#N)c(Cl)c1` (stereo partly drawn) [Cpd. No. 495, 2-chloro-4-((3S)-8-(5-(4-((6-(2,6-dioxopiperidin-3-yl)-5,7-dioxo-3,5,6,7-tetrahydropyrrolo[3,4-f]isoindol-2(1H)-yl)methyl)piperidine-1-carbonyl)pyrazin-2-yl)-3-methyl-2,8-diazaspiro[4.5]decan-2-yl)benzonitrile], for which the F turned out to be 107%. Besides, under setting [1], the AUC(0-t) was 950 ng·h/mL. Further, for the setting “iv, 1 mg/kg, IV, dose 1 mg/kg”, the clearance was 16.2 mL/min/kg and the Vd turned out to be 2.59 L/kg. Also, the half-life under setting [2] was 2.6 h. For the setting “po, 3 mg/kg”, the Cmax worked out at 722 ng/mL and the Tmax came out at 0.8 h. Besides, under setting [3], the AUC(0-t) stood at 3050 ng·h/mL. Also, the half-life under setting [4] is 3.4 h.

With `C[C@H]1CC2(CCN(c3ccc(C(=O)N4CCN(C5CCN(c6cc7c(cc6F)C(=O)N(C6CCC(=O)NC6=O)C7=O)CC5)CC4)cc3)CC2)CN1c1ccc(C#N)c(Cl)c1` (stereo partly drawn) [Cpd. No. 540], the F is 61%. Also, under setting [1], the AUC(0-t) worked out at 7990 ng·h/mL. For the setting “iv, 1 mg/kg, IV, dose 1 mg/kg”, the clearance was 2 mL/min/kg and the Vd was 0.96 L/kg. Also, the half-life under setting [2] was 7.3 h. For the setting “po, 3 mg/kg”, the Cmax turned out to be 1130 ng/mL and the Tmax was 3.3 h. In addition, the AUC(0-t) under setting [3] amounted to 14500 ng·h/mL. The half-life under setting [4] was 7.8 h.

`C[C@H]1CC2(CCN(c3ccc(C(=O)N4CC[C@@H](CN5CCN(c6ccc7c(c6)C(=O)N(C6CCC(=O)NC6=O)C7=O)CC5)C4)cc3)CC2)CN1c1ccc(C#N)c(Cl)c1` (stereo partly drawn) [compound 448] showed an F of 26%. The exposure AUC(0-t) under setting [1] came to 78 ng·h/mL. Under “iv, 1 mg/kg, IV, dose 1 mg/kg”, the clearance was 203 mL/min/kg and the Vd was 25.3 L/kg. Further, the half-life under setting [2] is 2.74 h. For the same molecule, where the note is “po, 3 mg/kg”, the Cmax worked out at 16 ng/mL and the Tmax was 1.67 h. For the same molecule, the AUC(0-t) under setting [3] stood at 60 ng·h/mL. Moreover, the half-life under setting [4] was 4.78 h.

Molecule `C[C@H]1CC2(CCN(c3ccc(C(=O)N4CCN(CC5CCN(c6cc7c(cc6F)C(=O)N(C6CCC(=O)NC6=O)C7=O)CC5)CC4)nn3)CC2)CN1c1ccc(C#N)c(Cl)c1` (stereo partly drawn) [compound 588] registered an F of 54%. For the same molecule, the AUC(0-t) under setting [1] came out at 1080 ng·h/mL. For the same molecule, under “iv, 1 mg/kg, IV, dose 1 mg/kg”, the clearance was 13.8 mL/min/kg and the Vd amounted to 6.76 L/kg. Further, under setting [2], the half-life was 9.5 h. Also, where the note is “po, 3 mg/kg”, the Cmax amounted to 347 ng/mL and the Tmax turned out to be 1 h. Further, under setting [3], the exposure AUC(0-t) is 1760 ng·h/mL. Moreover, the half-life under setting [4] is 5.9 h.

Source of the values: patent US20220380368A1, “SPIROCYCLIC ANDROGEN RECEPTOR PROTEIN DEGRADERS” (THE REGENTS OF THE UNIVERSITY OF MICHIGAN, priority 2019, published 2022).
